From PubChem BioAssay (NCI) come the findings set out here.

Among the test systems are MCF7 breast; KM12 colon; COLO 205 colon; HL-60(TB) leukemia; OVCAR-3 ovarian; HCT-116 colon; OVCAR-5 ovarian; HS 578T breast; NCI-H226 lung; NCI-H460 lung.
Holding throughout (assay): growth of human tumour cells (NCI), 48 h

SMILES strings stand for the structures. Values joined by “and” are separate entries in the source; they are usually repeats but may differ in a detail not shown here. Identical values can stand only once.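 1) Cells in 96-well plates. 2) Compound, 48 h, 5 concentrations. 3) Linear interpolation between surrounding doses. 4) Unreached endpoint = highest concentration. The concentration for 50% growth inhibition is given as GI50. At the TGI there is no net growth.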

With `O=C(CC1Sc2ccccc2NC1=O)NNc1ccc(F)cc1` (centres undefined), the GI50 is 52 µM in the assay on MCF7 breast; 25.2 µM in the assay with KM12 colon; 55.6 µM in the assay with COLO 205 colon; 7.9 µM in the assay on HL-60(TB) leukemia; over 100 µM in the assay with OVCAR-3 ovarian; 77.3 µM with HCT-116 colon. In addition, the GI50 was over 100 µM in the assay with OVCAR-5 ovarian, 72.4 µM in the assay on HS 578T breast, 41.3 µM in the assay with NCI-H226 lung and 30.8 µM with NCI-H460 lung. Moreover, the TGI with MCF7 breast, in the assay on KM12 colon, in the assay on COLO 205 colon, with HL-60(TB) leukemia, in the assay with OVCAR-3 ovarian and in the assay on HCT-116 colon was over 100 µM each time. Besides, the TGI in the assay with OVCAR-5 ovarian, in the assay on HS 578T breast, in the assay with NCI-H226 lung and with NCI-H460 lung was over 100 µM throughout.

Consider `Cc1cc(OCc2nn(CN3CCN(C)CC3)c(=S)n2/N=C/c2ccc(F)cc2)ccc1Cl`, for which the GI50 in the assay on MCF7 breast was 18.4 µM; with KM12 colon it was 17.9 µM; in the assay on COLO 205 colon, 12.6 µM; in the assay on HL-60(TB) leukemia, 17.4 µM; with OVCAR-3 ovarian, 17.4 µM; in the assay on HCT-116 colon it was 17.8 µM. The GI50 is 25 µM in the assay on OVCAR-5 ovarian, 33.1 µM in the assay with HS 578T breast, 17.7 µM in the assay on NCI-H226 lung and 17 µM with NCI-H460 lung. For the same molecule, the TGI in the assay with MCF7 breast is 34.4 µM; in the assay with KM12 colon, 37.5 µM; in the assay on COLO 205 colon, 25.7 µM; in the assay with HL-60(TB) leukemia, 40 µM; in the assay with OVCAR-3 ovarian it was 34.3 µM; in the assay with HCT-116 colon it was 32.3 µM. Besides, the TGI in the assay on OVCAR-5 ovarian worked out at 49.5 µM; with HS 578T breast, 88.7 µM; in the assay with NCI-H226 lung it was 33.6 µM; with NCI-H460 lung, 31.8 µM.

Take `CC(=N\O)/C(C)=N/O.CC(=N\O)/C(C)=N/O.[Fe].[NH2-].c1c[nH]cn1`: the GI50 in the assay on MCF7 breast, in the assay with KM12 colon, in the assay with COLO 205 colon, in the assay on HL-60(TB) leukemia, in the assay with OVCAR-3 ovarian and with HCT-116 colon was over 100 µM each time. Also, the GI50 in the assay on OVCAR-5 ovarian, in the assay on HS 578T breast, in the assay with NCI-H226 lung and in the assay on NCI-H460 lung was over 100 µM in each case. In addition, the TGI in the assay with MCF7 breast, in the assay with KM12 colon, in the assay on COLO 205 colon, in the assay on HL-60(TB) leukemia, with OVCAR-3 ovarian and with HCT-116 colon was over 100 µM in each case. In addition, the TGI with OVCAR-5 ovarian, in the assay on HS 578T breast, in the assay on NCI-H226 lung and with NCI-H460 lung was over 100 µM throughout.

With `C(=C\c1ccc(OCC2CO2)cc1)/C1=NCOC1` (centres undefined), the GI50 in the assay with MCF7 breast was 4.65 µM; in the assay on KM12 colon, 16.5 µM; in the assay with COLO 205 colon, 6.33 µM; in the assay on HL-60(TB) leukemia, 2.35 µM; in the assay with OVCAR-3 ovarian it was 7.87 µM; in the assay on HCT-116 colon, 7.01 µM. Moreover, the GI50 with OVCAR-5 ovarian was 16.4 µM; with HS 578T breast, 16 µM; in the assay with NCI-H226 lung, 16.4 µM; in the assay on NCI-H460 lung, 19.9 µM. The TGI in the assay on MCF7 breast was 46 µM; in the assay on KM12 colon it was 40.8 µM; with COLO 205 colon, 32.4 µM; in the assay on HL-60(TB) leukemia it was 9.16 µM; with OVCAR-3 ovarian, 29.1 µM; in the assay with HCT-116 colon it was 24.1 µM. Also, the TGI with OVCAR-5 ovarian was found to be 37.1 µM; in the assay with HS 578T breast it was 54.2 µM; in the assay with NCI-H226 lung it was 34.5 µM; with NCI-H460 lung, 57.7 µM.

For `O=c1[nH]c(=O)n(C2OC(CO)C(O)C2O)cc1F` (centres undefined), the GI50 is 0.00603 µM and < 0.0164 µM in the assay on MCF7 breast; 0.0267 µM with KM12 colon; 0.0447 µM in the assay on COLO 205 colon; 0.025 µM in the assay with HL-60(TB) leukemia; 0.0231 µM with OVCAR-3 ovarian; 0.00778 µM in the assay on HCT-116 colon. The values for the GI50 in the assay with OVCAR-5 ovarian, with HS 578T breast and in the assay with NCI-H460 lung were 0.0442 µM, 0.031 µM and 0.00463 µM, respectively. Further, the TGI in the assay on MCF7 breast is over 56.4 µM; in the assay on KM12 colon it was 51.9 µM; with COLO 205 colon, 18.7 µM; with HL-60(TB) leukemia, 26.3 µM; in the assay on OVCAR-3 ovarian it was 10.9 µM; in the assay on HCT-116 colon, 7.27 µM. In addition, the TGI with OVCAR-5 ovarian is 26 µM; in the assay on HS 578T breast, over 100 µM; with NCI-H226 lung it was 27.6 µM; with NCI-H460 lung, 1.01 µM.

Regarding `CCC(=C(c1ccc(OCCN2CCCC2)cc1)c1ccc(OCCN2CCCC2)cc1)c1ccc(Cl)cc1`, the GI50 with MCF7 breast was 0.287 µM; with KM12 colon it was 0.626 µM; with COLO 205 colon, 0.615 µM; in the assay on HL-60(TB) leukemia it was 0.606 µM; in the assay with OVCAR-3 ovarian, 0.624 µM; in the assay on HCT-116 colon, 0.545 µM. In addition, the GI50 in the assay on OVCAR-5 ovarian is 0.568 µM; in the assay with HS 578T breast, 0.659 µM; with NCI-H226 lung, 0.735 µM; with NCI-H460 lung it was 0.624 µM. The TGI in the assay with MCF7 breast stood at 0.822 µM; in the assay on KM12 colon it was 1.21 µM; in the assay on COLO 205 colon, 1.25 µM; in the assay on HL-60(TB) leukemia, 1.27 µM; with OVCAR-3 ovarian, 1.29 µM; with HCT-116 colon, 1.05 µM. Further, the TGI in the assay with OVCAR-5 ovarian turned out to be 1.11 µM; with HS 578T breast, 1.52 µM; in the assay on NCI-H226 lung, 1.63 µM; in the assay with NCI-H460 lung it was 1.18 µM.

With `COc1ccc2c(c1)C(=O)c1c-2n(CCCCl)c(=O)c2cc(N)ccc12`, the GI50 in the assay with MCF7 breast was 34.8 µM; with KM12 colon, 29.3 µM; in the assay with COLO 205 colon, over 100 µM; with HL-60(TB) leukemia, over 41.3 µM; with OVCAR-3 ovarian, over 100 µM; in the assay with HCT-116 colon it was over 57.9 µM. The GI50 was over 61.7 µM in the assay on OVCAR-5 ovarian, over 96.3 µM in the assay with HS 578T breast, over 80.7 µM with NCI-H226 lung and over 100 µM with NCI-H460 lung. Further, the TGI with MCF7 breast is over 100 µM; with KM12 colon it was over 100 µM; in the assay with COLO 205 colon, over 100 µM; with HL-60(TB) leukemia it was over 59.1 µM; in the assay with OVCAR-3 ovarian, over 100 µM; in the assay with HCT-116 colon, over 100 µM. Also, the TGI in the assay with OVCAR-5 ovarian, with HS 578T breast, in the assay with NCI-H226 lung and with NCI-H460 lung was over 100 µM throughout.
